Test results taken from patent US20250144067A1, “PERSONALIZED STARVATION THERAPY FOR CANCER” (Faeth Therapeutics, Inc., priority 2021, published 2025).
Counter-ions that a name gives are not always drawn.

Columns and labels:
[1] = system: NCI-H292 lung cancer cells; experiment: FDA drug screening, complete media vs cholesterol-free media without statin (TABLE 1); assay type: cell-based, human
[2] = system: NCI-H292 lung cancer cells; experiment: FDA drug screening, complete media vs cholesterol-free media with simvastatin (TABLE 2); assay type: cell-based, human; details: for Cholesterol-free media + simvastatin (0.04 μM) / Complete Media: NCI-H292 cells
[3] = Complete minus Cholesterol-free, […]
[4] = NCI-H292 cells, FDA drug library screen, cholesterol-free media without statin
[5] = NCI-H292 cells, FDA drug library screen, complete media
[6] = cholesterol-free media with simvastatin 0.04 μM, […]
[7] = complete media minus cholesterol-free media + simvastatin, […]
[8] = NCI-H292 cells, cholesterol-free media without statin
[9] = complete vs cholesterol-free media, greater than 0 enhanced anti-cancer activity, about 0 neutral, below 0 antagonists
[10] = FDA drug library screen, cholesterol-free media with simvastatin 0.04 μM
[11] = FDA drug library screen, complete media
[12] = complete media minus cholesterol-free media + simvastatin, >0 enhanced anti-cancer activity, about 0 neutral, <0 antagonist
[13] = Complete minus Cholesterol-free, >0 enhanced anti-cancer activity, about 0 neutral, <0 antagonist
[14] = NCI-H292 cells, cholesterol-free media without statin, FDA drug library screen
[15] = NCI-H292 cells, complete media, FDA drug library screen
[16] = FDA library drug in cholesterol-free media with simvastatin 0.04 μM
[17] = FDA library drug in complete media
[18] = complete media vs cholesterol-free media + simvastatin (0.04 μM), >0 enhanced anti-cancer activity, about 0 neutral, <0 antagonist
[19] = drug in cholesterol-free media with simvastatin 0.04 μM
[20] = complete media vs cholesterol-free media + simvastatin (0.04 μM), […]
[21] = complete vs cholesterol-free media, >0 enhanced anti-cancer activity, about 0 neutral, <0 antagonist
[22] = cholesterol-free media with simvastatin 0.04 μM, cell growth value in FDA drug screen
[23] = complete media, cell growth value in FDA drug screen
[24] = NCI-H292 cells in cholesterol-free media without statin
[25] = NCI-H292 cells in complete media

## CCCC(=O)O[C@]1(C(=O)CCl)[C@H](C)C[C@@H]2[C@@H]3CCC4=CC(=O)C=C[C@]4(C)[C@]3(F)C(=O)C[C@@]21C [Clobetasone butyrate]
[1]; [3]
  Difference: −0.18
[1]; [4]
  Cholesterol-free: 0.6832
[1]; [5]
  Complete: 0.5004
[2]; [6]
  Cholesterol-free media + simvastatin (0.04 μM): 0.5437
[2]; complete media, […]
  Complete Media: 0.5699
[2]; [7]
  Difference: 0.03

## O=C(Nc1ccc([N+](=O)[O-])cc1Cl)c1cc(Cl)ccc1O [Niclosamide]
[1]; [8]
  Cholesterol-free: 0.9593
[1]; NCI-H292 cells, complete media
  Complete: 0.6271
[1]; [9]
  Difference: −0.33
[2]; [10]
  Cholesterol-free media + simvastatin (0.04 μM): 0.365
[2]; [11]
  Complete Media: 1.031
[2]; [12]
  Difference: 0.67

## Cc1onc(-c2ccccc2)c1C(=O)N[C@@H]1C(=O)N2[C@@H]1SC(C)(C)[C@@H]2C(=O)O [Oxacillin (sodium monohydrate)]
[1]; [13]
  Difference: −0.02
[1]; [14]
  Cholesterol-free: 0.9255
[1]; [15]
  Complete: 0.9062
[2]; [16]
  Cholesterol-free media + simvastatin (0.04 μM): 1.304
[2]; [17]
  Complete Media: 1.035
[2]; [18]
  Difference: −0.27

## O=S(=O)([O-])CCSSCCS(=O)(=O)[O-].[Na+].[Na+] [Dimesna]
[1]; [3]
  Difference: −0.18
[1]; [4]
  Cholesterol-free: 1.073
[1]; [5]
  Complete: 0.897
[2]; [10]
  Cholesterol-free media + simvastatin (0.04 μM): 0.7165
[2]; [11]
  Complete Media: 1.057
[2]; [7]
  Difference: 0.34

## COc1cc(Nc2ncc(F)c(Nc3ccc4c(n3)N(COP(=O)(O)O)C(=O)C(C)(C)O4)n2)cc(OC)c1OC [Fostamatinib Disodium]
[1]; [13]
  Difference: −0.20
[1]; [8]
  Cholesterol-free: 1.102
[1]; NCI-H292 cells, complete media
  Complete: 0.9004
[2]; [10]
  Cholesterol-free media + simvastatin (0.04 μM): 0.7811
[2]; [11]
  Complete Media: 0.6698
[2]; [18]
  Difference: −0.11

## O=Cc1ccc(O[C@@H]2O[C@H](CO)[C@@H](O)[C@@H](O)[C@H]2O)cc1 [Helicid]
[1]; [3]
  Difference: −0.20
[1]; [8]
  Cholesterol-free: 1.202
[1]; NCI-H292 cells, complete media
  Complete: 1.003
[2]; [19]
  Cholesterol-free media + simvastatin (0.04 μM): 1.093
[2]; drug in complete media
  Complete Media: 0.9239
[2]; [20]
  Difference: −0.17

## C[C@H](CCC(=O)O)[C@H]1CC[C@H]2[C@@H]3CC[C@@H]4C[C@H](O)CC[C@]4(C)[C@H]3C[C@H](O)[C@]12C [Deoxycholic acid sodium salt]
[1]; [14]
  Cholesterol-free: 0.8045
[1]; [15]
  Complete: 0.9543
[1]; [21]
  Difference: 0.15
[2]; [19]
  Cholesterol-free media + simvastatin (0.04 μM): 0.8739
[2]; drug in complete media
  Complete Media: 0.7063
[2]; [18]
  Difference: −0.17

## C=CCc1cc(OC)c(O)c(C(=O)NCCO)c1 [Alibendol]
[1]; [13]
  Difference: −0.25
[1]; [8]
  Cholesterol-free: 1.047
[1]; NCI-H292 cells, complete media
  Complete: 0.797
[2]; [10]
  Cholesterol-free media + simvastatin (0.04 μM): 0.9518
[2]; [11]
  Complete Media: 0.8774
[2]; [18]
  Difference: −0.07

## N#Cc1c(N2C[C@@H]3NCCO[C@H]3C2)c(F)cc2c(=O)c(C(=O)O)cn(C3CC3)c12 [Finafloxacin]
[1]; [3]
  Difference: −0.22
[1]; [8]
  Cholesterol-free: 1.006
[1]; NCI-H292 cells, complete media
  Complete: 0.7899
[2]; [19]
  Cholesterol-free media + simvastatin (0.04 μM): 1.227
[2]; drug in complete media
  Complete Media: 0.9973
[2]; [20]
  Difference: −0.23

## CC(C)(CO)[C@H](O)C(=O)NCCC(=O)O.[Na] [D-Pantothenic acid (sodium)]
[1]; [13]
  Difference: −0.03
[1]; [14]
  Cholesterol-free: 1.02
[1]; [15]
  Complete: 0.9879
[2]; [19]
  Cholesterol-free media + simvastatin (0.04 μM): 1.102
[2]; drug in complete media
  Complete Media: 0.858
[2]; [18]
  Difference: −0.24

## CN1CCC(OC(c2ccccc2)c2ccccc2)CC1 [Diphenylpyraline (hydrochloride)]
[1]; [13]
  Difference: −0.22
[1]; [8]
  Cholesterol-free: 0.9623
[1]; NCI-H292 cells, complete media
  Complete: 0.7446
[2]; [10]
  Cholesterol-free media + simvastatin (0.04 μM): 0.641
[2]; [11]
  Complete Media: 1.367
[2]; [12]
  Difference: 0.73

## CCC(=O)O[C@]1(C(=O)CCl)[C@@H](C)C[C@H]2[C@@H]3CCC4=CC(=O)C=C[C@]4(C)[C@@]3(F)[C@@H](O)C[C@@]21C [Clobetasol propionate]
[1]; [13]
  Difference: −0.20
[1]; [8]
  Cholesterol-free: 1.481
[1]; NCI-H292 cells, complete media
  Complete: 1.28
[2]; [22]
  Cholesterol-free media + simvastatin (0.04 μM): 0.7256
[2]; [23]
  Complete Media: 0.7474
[2]; [12]
  Difference: 0.02

## C[n+]1ccccc1/C=N/O.[Cl-] [Pralidoxime (chloride)]
[1]; [3]
  Difference: −0.31
[1]; [8]
  Cholesterol-free: 1.203
[1]; NCI-H292 cells, complete media
  Complete: 0.8976
[2]; [16]
  Cholesterol-free media + simvastatin (0.04 μM): 1.051
[2]; [17]
  Complete Media: 0.7574
[2]; [20]
  Difference: −0.29

## Nc1ccn(C[C@@H](CO)OCP(=O)(O)O)c(=O)n1 [Cidofovir]
[1]; [8]
  Cholesterol-free: 2.027
[1]; NCI-H292 cells, complete media
  Complete: 1.556
[1]; [9]
  Difference: −0.47
[2]; [22]
  Cholesterol-free media + simvastatin (0.04 μM): 0.9844
[2]; [23]
  Complete Media: 1.01
[2]; [12]
  Difference: 0.03

## O=c1[nH]cnc2c1ncn2[C@H]1CC[C@@H](CO)O1 [Didanosine]
[1]; [13]
  Difference: −0.23
[1]; [8]
  Cholesterol-free: 0.9969
[1]; NCI-H292 cells, complete media
  Complete: 0.7675
[2]; [10]
  Cholesterol-free media + simvastatin (0.04 μM): 0.9758
[2]; [11]
  Complete Media: 0.8636
[2]; [18]
  Difference: −0.11

## N[C@@H](Cc1c[nH]c2ccccc12)C(=O)O [L-Tryptophan]
[1]; [14]
  Cholesterol-free: 1.009
[1]; [15]
  Complete: 1.103
[1]; [21]
  Difference: 0.09
[2]; [19]
  Cholesterol-free media + simvastatin (0.04 μM): 1.157
[2]; drug in complete media
  Complete Media: 0.9202
[2]; [18]
  Difference: −0.24

## Cn1c(=O)c2c(ncn2CC2OCCO2)n(C)c1=O [Doxofylline]
[1]; [8]
  Cholesterol-free: 1.338
[1]; NCI-H292 cells, complete media
  Complete: 0.9897
[1]; [9]
  Difference: −0.35
[2]; [16]
  Cholesterol-free media + simvastatin (0.04 μM): 1.302
[2]; [17]
  Complete Media: 1.024
[2]; [18]
  Difference: −0.28

## C#Cc1cccc(Nc2ncnc3cc4c(cc23)OCCOCCOCCO4)c1 [Icotinib]
[1]; [13]
  Difference: −0.05
[1]; [14]
  Cholesterol-free: 0.4295
[1]; [15]
  Complete: 0.3774
[2]; [22]
  Cholesterol-free media + simvastatin (0.04 μM): 0.6476
[2]; [23]
  Complete Media: 0.6925
[2]; [12]
  Difference: 0.04

## CC(C)(O)c1ccccc1CC[C@@H](SCC1(CC(=O)O)CC1)c1cccc(/C=C/c2ccc3ccc(Cl)cc3n2)c1 [Montelukast (sodium)]
[1]; Complete minus Cholesterol-free, greater than 0 enhanced anti-cancer activity, about 0 neutral, below 0 antagonists
  Difference: −0.51
[1]; [24]
  Cholesterol-free: 1.599
[1]; [25]
  Complete: 1.09
[2]; [22]
  Cholesterol-free media + simvastatin (0.04 μM): 0.8464
[2]; [23]
  Complete Media: 0.9746
[2]; [12]
  Difference: 0.13

## Lasofoxifene (Tartrate)
[1]; [8]
  Cholesterol-free: 1.19
[1]; NCI-H292 cells, complete media
  Complete: 0.7569
[1]; complete vs cholesterol-free media, […]
  Difference: −0.43
[2]; [10]
  Cholesterol-free media + simvastatin (0.04 μM): 0.6494
[2]; [11]
  Complete Media: 0.9428
[2]; [7]
  Difference: 0.29

## COc1ccnc(C[S+]([O-])c2nc3cc(-n4cccc4)ccc3[nH]2)c1C (stereo not drawn) [Ilaprazole]
[1]; Complete minus Cholesterol-free, greater than 0 enhanced anti-cancer activity, about 0 neutral, below 0 antagonist
  Difference: −0.14
[1]; [4]
  Cholesterol-free: 1.326
[1]; [5]
  Complete: 1.19
[2]; [16]
  Cholesterol-free media + simvastatin (0.04 μM): 1.567
[2]; [17]
  Complete Media: 1.084
[2]; [18]
  Difference: −0.48

## Oc1cc(Cl)ccc1Oc1ccc(Cl)cc1Cl [Triclosan]
[1]; [3]
  Difference: −0.91
[1]; [24]
  Cholesterol-free: 1.986
[1]; [25]
  Complete: 1.081
[2]; [6]
  Cholesterol-free media + simvastatin (0.04 μM): 1.015
[2]; complete media, […]
  Complete Media: 1.093
[2]; [7]
  Difference: 0.08

## CCCN(CCC)C(=O)C(CCC(=O)O)NC(=O)c1ccccc1 (stereo not drawn) [Proglumide (sodium)]
[1]; [13]
  Difference: −0.28
[1]; [8]
  Cholesterol-free: 1.258
[1]; NCI-H292 cells, complete media
  Complete: 0.9781
[2]; [19]
  Cholesterol-free media + simvastatin (0.04 μM): 1.215
[2]; drug in complete media
  Complete Media: 0.9616
[2]; [18]
  Difference: −0.25
